Test results reported in patent publication US8546385B2, “Benzoic pyrrolopyridine derivatives” (Laboratoires FOURNIER SA, priority 2010, dated 2013).
Where two headings read alike, the source gives them in different places.

Legend:
[1] = biological target: hNurr1_RXRαFL (NURR-1/RXRα heterodimer) (Homo sapiens, UniProt P19793); experiment: Transactivation test (luciferase reporter) in Cos-7 cells co-transfected with NURR-1-Gal4 and RXRα; format: cell-based
Description: The ability of the compounds according to the invention to behave as activators of the heterodimers formed by the NURR-1 nuclear receptor and the RXR nuclear receptors was measured, by means of an in vitro test. A transactivation test was used as a primary screening test. […] The transfections were performed using a chemical agent (Jet PEI). The transfected cells were distributed into 384-well plates and left to stand for 24 hours. After 24 hours, the culture medium was changed. […] After incubating overnight, the luciferase expression was measured after addition of “SteadyGlo” according to the manufacturer's instructions (Promega). […] The levels of induction were calculated relative to the basal activity of each heterodimer. The results were expressed as a percentage of the level of induction relative to the level of induction obtained with the reference (the level of induction of the reference is arbitrarily equal to 100%).

[2] = biological target: hNurr1_RXRγFL (NURR-1/RXRγ heterodimer) (Homo sapiens, UniProt P48443); experiment: Transactivation test (luciferase reporter) in Cos-7 cells co-transfected with NURR-1-Gal4 and RXRγ; format: cell-based; settings: percentage efficacy relative to the reference XCT0135908 at 2×10^−5 M (=100%), read-out: hNurr1_RXRγFL Eff (%)
Chain of hNurr1_RXRγFL (NURR-1/RXRγ heterodimer) (P48443 whole entry, the tested form may be a part): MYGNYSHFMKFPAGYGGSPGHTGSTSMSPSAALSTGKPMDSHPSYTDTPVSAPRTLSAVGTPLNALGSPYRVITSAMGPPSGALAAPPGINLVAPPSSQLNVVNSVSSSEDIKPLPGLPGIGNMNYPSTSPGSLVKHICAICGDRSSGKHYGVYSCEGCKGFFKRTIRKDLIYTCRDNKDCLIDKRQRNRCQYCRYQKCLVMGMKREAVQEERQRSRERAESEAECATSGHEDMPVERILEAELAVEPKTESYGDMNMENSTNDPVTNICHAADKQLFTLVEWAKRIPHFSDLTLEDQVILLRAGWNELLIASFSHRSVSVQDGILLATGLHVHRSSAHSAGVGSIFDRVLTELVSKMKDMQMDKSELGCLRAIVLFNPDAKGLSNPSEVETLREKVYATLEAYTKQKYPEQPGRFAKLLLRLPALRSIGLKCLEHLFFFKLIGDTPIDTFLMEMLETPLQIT
Chain of hNurr1_RXRγFL (NURR-1/RXRγ heterodimer) (P43354 whole entry partner, the tested form may be a part): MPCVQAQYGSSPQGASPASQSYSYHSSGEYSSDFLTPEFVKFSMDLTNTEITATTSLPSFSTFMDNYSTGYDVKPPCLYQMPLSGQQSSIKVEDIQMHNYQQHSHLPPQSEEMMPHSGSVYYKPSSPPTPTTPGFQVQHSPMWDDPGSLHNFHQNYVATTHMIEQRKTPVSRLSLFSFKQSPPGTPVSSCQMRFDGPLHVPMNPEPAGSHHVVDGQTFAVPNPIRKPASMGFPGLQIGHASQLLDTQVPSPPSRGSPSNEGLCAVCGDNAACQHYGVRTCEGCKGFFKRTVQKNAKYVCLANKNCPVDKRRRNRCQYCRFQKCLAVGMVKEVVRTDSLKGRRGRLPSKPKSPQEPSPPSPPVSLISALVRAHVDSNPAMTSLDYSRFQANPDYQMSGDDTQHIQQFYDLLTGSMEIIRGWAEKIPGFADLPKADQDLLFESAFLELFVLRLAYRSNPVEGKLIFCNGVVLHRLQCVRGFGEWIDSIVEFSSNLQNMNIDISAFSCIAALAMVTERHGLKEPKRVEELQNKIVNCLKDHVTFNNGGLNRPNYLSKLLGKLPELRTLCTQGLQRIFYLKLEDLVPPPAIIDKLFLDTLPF
Description: The ability of the compounds according to the invention to behave as activators of the heterodimers formed by the NURR-1 nuclear receptor and the RXR nuclear receptors was measured, by means of an in vitro test.
A transactivation test was used as a primary screening test. Cos-7 cells were co-transfected with a plasmid expressing a construct of the NURR-1-Ga14 human receptor, a plasmid expressing the RXR human receptor (RXRα or RXRγ receptor) and a reporter plasmid 5Gal4pGL3-TK-Luc. The transfections were performed using a chemical agent (Jet PEI).
The transfected cells were distributed into 384-well plates and left to stand for 24 hours.
After 24 hours, the culture medium was changed. The test products were added (final concentration of between 10^−4 and 3×10^−10 M) in the culture medium. After incubating overnight, the luciferase expression was measured after addition of “SteadyGlo” according to the manufacturer's instructions (Promega).
4-[[6-Methyl-2-phenyl-5-(2-propenyl)-4-pyrimidinyl]amino]benzoic acid (reference XCT0135908, described by Wallen-Mackenzie et al. 2003, Genes & Development 17: 3036-3047) at 2×10^−5 M (RXR agonist) was used as reference.
The levels of induction were calculated relative to the basal activity of each heterodimer. The results were expressed as a percentage of the level of induction relative to the level of induction obtained with the reference (the level of induction of the reference is arbitrarily equal to 100%).

[3] = percentage efficacy relative to the reference XCT0135908 at 2×10^−5 M (=100%), read-out: hNurr1_RXRαFL Eff (%)

Chain of hNurr1_RXRαFL (NURR-1/RXRα heterodimer) (P19793 whole entry, the tested form may be a part): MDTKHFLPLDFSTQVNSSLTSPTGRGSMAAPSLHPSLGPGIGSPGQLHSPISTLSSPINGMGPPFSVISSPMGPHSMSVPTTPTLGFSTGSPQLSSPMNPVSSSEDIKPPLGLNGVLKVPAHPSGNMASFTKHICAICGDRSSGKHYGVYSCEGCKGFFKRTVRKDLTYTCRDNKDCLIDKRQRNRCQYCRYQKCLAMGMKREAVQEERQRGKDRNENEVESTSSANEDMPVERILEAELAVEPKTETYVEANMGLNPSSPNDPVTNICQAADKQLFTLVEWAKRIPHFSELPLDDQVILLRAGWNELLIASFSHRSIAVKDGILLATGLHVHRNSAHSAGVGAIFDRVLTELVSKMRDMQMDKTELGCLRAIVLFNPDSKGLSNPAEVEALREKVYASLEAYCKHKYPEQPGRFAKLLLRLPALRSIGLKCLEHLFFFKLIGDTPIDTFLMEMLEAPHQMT
Chain of hNurr1_RXRαFL (NURR-1/RXRα heterodimer) (P43354 whole entry, further chain, the tested form may be a part): as the sequence (P43354 whole entry partner, the tested form may be a part) above

Compound | Emax [1, 3] [%] | Emax [2] [%] | Emax ([1]; COS-7, read-out: hNurr1_RXRαFL Eff (%), percentage efficacy relative to the reference XCT0135908 at 2×10^−5 M (=100%)) [%]
CC(C)(C)c1cccc(S(=O)(=O)n2c(Cc3ccc(C(=O)O)s3)cc3nc(C(F)(F)F)ccc32)c1 [Example 1, 5-[[1-[[3-(1,1-dimethylethyl)phenyl]sulfonyl]-5-(trifluoromethyl)-1H-pyrrolo[3,2-b]pyridin-2-yl]methyl]thiophene-2-carboxylic acid] | 67 | 64 | 
CC(C)(C)c1cccc(S(=O)(=O)n2c(Cc3cccc(C(=O)O)c3)cc3cc(C(F)(F)F)ncc32)c1 [Example 2, 3-[[1-[[3-(1,1-dimethylethyl)phenyl]sulfonyl]-5-(trifluoromethyl)-1H-pyrrolo[2,3-c]pyridin-2-yl]methyl]-2-benzoic acid] | 70 | 86 | 
CC(C)(C)c1cccc(S(=O)(=O)n2c(Cc3cc(C(=O)O)co3)cc3cc(C(F)(F)F)ncc32)c1 [Example 4, 5-[[1-[[3-(1,1-dimethylethyl)phenyl]sulfonyl]-5-(trifluoromethyl)-1H-pyrrolo[2,3-c]pyridin-2-yl]methyl]furan-3-carboxylic acid] | 104 |  | 
CC(C)(C)c1cccc(S(=O)(=O)n2c(Cc3cncc(C(=O)O)c3)cc3cc(C(F)(F)F)ncc32)c1 [Example 5, 5-[[1-[[3-(1,1-dimethylethyl)phenyl]sulfonyl]-5-(trifluoromethyl)-1H-pyrrolo[2,3-c]pyridin-2-yl]methyl]pyridine-3-carboxylic acid] | 94 |  | 
CC(C)(C)c1cccc(S(=O)(=O)n2c(Cc3csc(C(=O)O)c3)cc3cc(C(F)(F)F)ncc32)c1 [Example 6, 4-[[1-[[3-(1,1-dimethylethyl)phenyl]sulfonyl]-5-(trifluoromethyl)-1H-pyrrolo[2,3-c]pyridin-2-yl]methyl]thiophene-2-carboxylic acid] | 137 |  | 
CC(C)(C)c1cccc(S(=O)(=O)n2c(Cc3ccc(F)c(C(=O)O)c3)cc3cc(C(F)(F)F)ncc32)c1 [Example 7, 5-[[1-[[3-(1,1-dimethylethyl)phenyl]sulfonyl]-5-(trifluoromethyl)-1H-pyrrolo[2,3-c]pyridin-2-yl]methyl]-2-fluorobenzoic acid] | 119 |  | 
CC(C)(C)c1cccc(S(=O)(=O)n2c(Cc3nc(C(=O)O)cs3)cc3nc(C(F)(F)F)ccc32)c1 [Example 8, 2-[[1-[[3-(1,1-dimethylethyl)phenyl]sulfonyl]-5-(trifluoromethyl)-1H-pyrrolo[3,2-b]pyridin-2-yl]methyl]thiazole-4-carboxylic acid] | 103 | 72 | 
CN1CCOc2ccc(S(=O)(=O)n3c(Cc4ccc(C(=O)O)cc4)cc4cc(C(F)(F)F)ncc43)cc21 [Example 12, 4-[[1-[(3,4-dihydro-4-methyl-2H-1,4-benzoxazin-6-yl)sulfonyl]-5-(trifluoromethyl)-1H-pyrrolo[2,3-c]pyridin-2-yl]methyl]benzoic acid] | 81 | 75 | 
CC(C)c1ccc(S(=O)(=O)n2c(Cc3ccc(C(=O)O)cc3)cc3cc(C(F)(F)F)ncc32)cc1 [Example 14, 4-[[1-[[4-(1-methylethyl)phenyl]sulfonyl]-5-(trifluoromethyl)-1H-pyrrolo[2,3-c]pyridin-2-yl]methyl]benzoic acid] | 64 | 54 | 
CC(C)c1ccc(S(=O)(=O)n2c(Cc3ccc(C(=O)O)cc3)cc3cc(Cl)cnc32)cc1 [Example 31, 4-[[5-chloro-1-[[4-(1-methylethyl)phenyl]sulfonyl]-1H-pyrrolo[2,3-b]pyridin-2-yl]methyl]benzoic acid] |  | 48 | 63

Further lines, with some results ahead:

Emax [1, 3] [%] | Emax [2] [%] | Compound | Emax ([1]; COS-7, read-out: hNurr1_RXRαFL Eff (%), percentage efficacy relative to the reference XCT0135908 at 2×10^−5 M (=100%)) [%]
68 | 53 | CC(C)c1ccc(S(=O)(=O)n2c(Cc3ccc(C(=O)O)cc3)cc3nc(C(F)(F)F)ccc32)cc1 [Example 16, 4-[1-(4-(1-methylethyl)phenylsulfonyl)-5-trifluoromethyl-1H-pyrrolo[3,2-b]pyridin-2-ylmethyl]benzoic acid] | 
62 | 69 | CN1CCOc2ccc(S(=O)(=O)n3c(Cc4ccc(C(=O)O)cc4)cc4cc(C(F)(F)F)cnc43)cc21 [Example 18, 4-[[1-[(3,4-dihydro-4-methyl-2H-1,4-benzoxazin-6-yl)sulfonyl]-5-(trifluoromethyl)-1H-pyrrolo[2,3-b]pyridin-2-yl]methyl]benzoic acid] | 
42 | 27 | CC(C)c1ccc(S(=O)(=O)n2c(Cc3ccc(C(=O)O)cc3)cc3cc(Cl)ncc32)cc1 [Example 20, 4-[[5-chloro-1-[[4-(1-methylethyl)phenyl]sulfonyl]-1H-pyrrolo[2,3-c]pyridin-2-yl]methyl]benzoic acid] | 
92 | 68 | CC(C)(C)c1cccc(S(=O)(=O)n2c(Cc3ccc(C(=O)O)cc3)cc3nc(C(F)(F)F)ccc32)c1 [Example 22, 4-[[1-[[3-(1,1-dimethylethyl)phenyl]sulfonyl]-5-(trifluoromethyl)-1H-pyrrolo[3,2-b]pyridin-2-yl]methyl]benzoic acid] | 
57 | 52 | CC(C)c1cccc(S(=O)(=O)n2c(Cc3ccc(C(=O)O)cc3)cc3cc(C(F)(F)F)cnc32)c1 [Example 25, 4-[[1-[[3-(1-methylethyl)phenyl]sulfonyl]-5-(trifluoromethyl)-1H-pyrrolo[2,3-b]pyridin-2-yl]methyl]benzoic acid] | 
66 | 51 | CC(C)(C)c1cccc(S(=O)(=O)n2c(Cc3ccc(C(=O)O)cc3)cc3cc(C(F)(F)F)cnc32)c1 [Example 28, 4-[[1-[[3-(1,1-dimethylethyl)phenyl]sulfonyl]-5-(trifluoromethyl)-1H-pyrrolo[2,3-b]pyridin-2-yl]methyl]benzoic acid] | 
84 |  | CC(C)(C)c1cccc(S(=O)(=O)n2c(C(O)c3ccc(C(=O)O)s3)cc3nc(C(F)(F)F)ccc32)c1 (stereo not shown) [Example 32, 5-{hydroxy[1-(3-(1,1-dimethylethyl)phenylsulfonyl)-5-trifluoromethyl-1H-pyrrolo[3,2-b]pyridin-2-yl]methyl}thiophene-2-carboxylic acid] | 
92 |  | CCN(CC)C(=O)c1ccc(C(F)c2cc3nc(C(F)(F)F)ccc3n2S(=O)(=O)c2cccc(C(C)(C)C)c2)s1 (stereo not shown) [Example 33, 5-[[1-[[3-(1,1-dimethylethyl)phenyl]sulfonyl]-5-(trifluoromethyl)-1H-pyrrolo[3,2-b]pyridin-2-yl]fluoromethyl]-N,N-diethyl-2-thiophenecarboxamide] | 
31 |  | CC(C)(C)c1cccc(S(=O)(=O)n2c(C(=O)c3ccc(C(=O)O)s3)cc3nc(C(F)(F)F)ccc32)c1 [Example 34, 5-{1-(3-(1,1-dimethylethyl)phenylsulfonyl)-5-trifluoromethyl-1H-pyrrolo[3,2-b]pyridine-2-carbonyl}thiophene-2-carboxylic acid] | 
67 |  | Cc1c(Cc2ccc(C(=O)O)cc2)n(S(=O)(=O)c2cccc(C(C)(C)C)c2)c2ccc(C(F)(F)F)nc12 [Example 37, 4-[[1-[[3-(1,1-dimethylethyl)phenyl]sulfonyl]-3-methyl-5-(trifluoro-methyl)-1H-pyrrolo[3,2-b]pyridin-2-yl]methyl]benzoic acid] | 
80 |  | CC(C)c1ccc(S(=O)(=O)n2c(Cc3ccc(C(=O)O)s3)cc3cc(Cl)cnc32)cc1 [Example 38, 5-[[1-[[4-(1,1-methylethyl)phenyl]sulfonyl]-5-chloro-1H-pyrrolo[2,3-b]pyridin-2-yl]methyl]thiophene-2-carboxylic acid] | 
51 |  | CC(C)(C)c1cccc(S(=O)(=O)n2c(Cc3ccc(C(=O)NS(C)(=O)=O)cc3)cc3nc(C(F)(F)F)ccc32)c1 [Example 39, N-{4-[1-(3-tert-butylbenzenesulfonyl)-5-trifluoromethyl-1H-pyrrolo[3,2-b]pyridin-2-ylmethyl]benzoyl}methanesulfonamide] | 
